In experiment [1] the target is CDK4/Cyclin D1 (Homo sapiens (Human), UniProt P11802). Kind of experiment: CDK4/CyclinD1 enzymatic activity assay (TR-FRET). The class given is biochemical. As to conditions: ATP 2 mM, read-out: CDK4_D1 IC50. How it is done:
CDK4/CyclinD1 Enzymatic Activity Assay
The inhibitory activity of compounds was evaluated in vitro using TR-FRET assay with white 384-well low volume microplate (Greiner Bio-One). CDK4/Cyclin D1 catalyzed phosphorylation of peptide in the presence and absence of compounds was measured. IC50 determination. Recombinant protein complex CDK4/Cyclin D1, expressed from insect cell, was purchased from ProQinase. Testing compounds were dissolved in DMSO at 0.1 mM and tested in 9-dose IC50 mode. The reaction mixture was prepared by mixing CDK4/CyclinD1 (1 nM final), ULight-4E-BP1 (100 nM final, Perkinelmer, TRF0128-D), and ATP (2 mM final) in assay buffer (20 mM of HEPES pH 7.4, 1 mM of EGTA, 0.05% BSA, 0.005% Tween 20, and 1 mM TCEP). The compound of interest in DMSO was added to each well in 3-fold serial dilution by dispenser (TECAN D300E). After 20 minutes preincubation at room temperature, MgCl2 (10 mM final) was added to initiate the reaction. Following a 60 minutes incubation at 37° C., the reaction was stopped by addition of 2 μL of quenching buffer consisting of Lance detection buffer (Perkinelmer CR97-100C), 2 nM LANCE Ultra Europium-anti-P-4E-BP1 (Perkinelmer, TRF0216-D), 10 mM EDTA, and incubate at room temperature for additional 60 minutes in dark. The reaction signal was measured by Envision multimode plate reader (PerkinElmer, 2102-0010). IC50 values were determined by fitting the data to the standard 4 parameters with Hill Slope using GraphPad Prism software.
In general terms: In TR-FRET formats the signal depends on donor and acceptor labels being close together.

Experiment [2] relates to MCF7 adenocarcinoma cell line. The experiment is described as follows: Cell proliferation studies in MCF7 cells (ATP-Lite, 10 days). It is filed as cell-based. As to conditions: Homo sapiens, 240 h, read-out: PROLIFERATION_CTG_MCF7 IC50. The method, then: Cell Proliferation Studies in MCF7 Cells
Cell proliferation studies were conducted in MCF7 adenocarcinoma cell line. Cells were maintained in DMEM (Coming, Catalog #: 10-013-CV) supplemented with 10% v/v FBS (Gibco, Catalog #: 26140-079), 1% v/v Penicillin Streptomycin (Gibco, Catalog #15140-122) Cells were seeded in 384-well plates at a density of 100 or 200 cells/well. Compounds dissolved in DMSO were plated in quadruplicate using a digital dispenser (D300E, Tecan) and tested on a 9-point 3-fold serial dilution. Cells were incubated for 10 days in a 37° C. active humidified incubator at 5% CO2. A media exchange and second compound addition were performed on day 5. Cell viability was measured using the ATP-Lite 1-Step Luminescence reagent (Perkin Elmer, Catalog #: 6016731) as per manufacturer's instructions. Luminescence signal was measured with a multimode plate reader (Envision 2105, Perkin Elmer). Raw data files were imported to Dotmatics Screening Ultra for IC50 analysis. Luminescence values were normalized to both background and DMSO controls to obtain a percentage of viable cells relative to DMSO vehicle control.

The source of these data is patent US11685744B2, “CDK inhibitors and their use as pharmaceuticals” (Prelude Therapeutics, Incorporated, priority 2020, dated 2023).

CDK4/Cyclin D1, sequence (P11802 whole entry): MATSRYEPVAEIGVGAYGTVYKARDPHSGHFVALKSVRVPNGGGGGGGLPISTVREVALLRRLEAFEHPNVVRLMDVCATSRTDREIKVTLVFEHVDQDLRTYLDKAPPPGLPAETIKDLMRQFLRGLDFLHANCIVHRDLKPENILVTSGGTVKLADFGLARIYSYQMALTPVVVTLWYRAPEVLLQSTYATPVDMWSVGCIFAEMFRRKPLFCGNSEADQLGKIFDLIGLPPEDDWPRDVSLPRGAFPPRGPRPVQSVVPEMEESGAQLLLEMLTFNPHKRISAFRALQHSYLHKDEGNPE
CDK4/Cyclin D1, sequence (P24385 whole entry partner): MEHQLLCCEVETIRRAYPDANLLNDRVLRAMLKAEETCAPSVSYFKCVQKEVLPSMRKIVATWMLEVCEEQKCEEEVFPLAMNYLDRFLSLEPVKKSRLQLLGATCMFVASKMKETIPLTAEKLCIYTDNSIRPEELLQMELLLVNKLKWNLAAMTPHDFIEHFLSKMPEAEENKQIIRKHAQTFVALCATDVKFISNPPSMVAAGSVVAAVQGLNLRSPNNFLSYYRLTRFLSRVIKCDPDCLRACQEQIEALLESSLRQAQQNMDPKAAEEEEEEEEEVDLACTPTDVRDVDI

Turning to `COc1cnc(Nc2ccc(C3CCN(C)CC3)cn2)nc1-c1cc2nc(C)n(C(C)C)c2s1` [Example 127, 4-(3-Isopropyl-2-methyl-3H-thieno[2,3-d]imidazol-5-yl)-5-methoxy-N-(5-(1-methylpiperidin-4-yl)pyridin-2-yl)pyrimidin-2-amine], the IC50 in experiment [1] lay within 0.02 to 0.2 µM. In the case of `CN1CCN(c2ccc(Nc3ncc(F)c(-c4cc5c(C6CCCC6)ccnc5s4)n3)nc2)CC1` [Example 45, 4-(4-Cyclopentylthieno[2,3-b]pyridin-2-yl)-5-fluoro-N-[5-(4-methylpiperazin-1-yl)pyridin-2-yl]pyrimidin-2-amine], the IC50 in experiment [1] lay in the range of 0.02 to 0.2 µM; in experiment [2], 0.2 to 2 µM. The matching figures for `CCN1CCN(Cc2ccc(Nc3ncc(F)c(-c4cc5nccc(C(C)C)c5s4)n3)nc2)CC1` [Example 19, N-[5-[(4-Ethylpiperazin-1-yl)methyl]pyridin-2-yl]-5-fluoro-4-(7-propan-2-ylthieno[3,2-b]pyridin-2-yl)pyrimidin-2-amine]: 0.02 to 0.2 µM and 0.2 to 2 µM. For the compound `Cc1nc2cc(-c3nc(Nc4cccnn4)ncc3F)sc2n1C(C)C` [Example 107, N-(5-Fluoro-4-(3-isopropyl-2-methyl-3H-thieno[2,3-d]imidazol-5-yl)pyrimidin-2-yl)pyridazin-3-amine], in experiment [1], the IC50 lay in the range of 0.02 to 0.2 µM. As to `Fc1cnc(Nc2ccc(N3CCNCC3)cn2)nc1-c1cc2nccc(C3CCCC3)c2s1` [Example 36, 4-(7-Cyclopentylthieno[3,2-b]pyridin-2-yl)-5-fluoro-N-(5-piperazin-1-ylpyridin-2-yl)pyrimidin-2-amine], the IC50 was 0.02 to 0.2 µM in experiment [1] and 0.2 to 2 µM in experiment [2].

Take `CCN1CC2(C1)CN(c1ccc(Nc3ncc(F)c(-c4sc5c(C(C)(C)OC)n(C)nc5c4C)n3)nc1)C2` [Example 105, N-(5-(6-Ethyl-2,6-diazaspiro[3.3]heptan-2-yl)pyridin-2-yl)-5-fluoro-4-(3-(2-methoxypropan-2-yl)-2,6-dimethyl-2H-thieno[3,2-c]pyrazol-5-yl)pyrimidin-2-amine]: the IC50 in experiment [1] was at most 0.02 µM; in experiment [2], 0.02 to 0.2 µM. On the same counts, the results for `CCN1CCN(Cc2ccc(Nc3ncc(F)c(-c4cc5nccc(C(C)(C)O)c5s4)n3)nc2)CC1` [Example 27, 2-[2-[2-[[5-[(4-Ethylpiperazin-1-yl)methyl]pyridin-2-yl]amino]-5-fluoropyrimidin-4-yl]thieno[3,2-b]pyridin-7-yl]propan-2-ol] are 0.02 to 0.2 µM and 0.2 to 2 µM.

Take `Cc1c(-c2nc(Nc3ccc(N4CC5(CN(C)CC5(F)F)C4)cn3)ncc2F)sc2c1nc(C)n2C(C)C` [Example 70, N-[5-(5,5-Difluoro-7-methyl-2,7-diazaspiro[3.4]octan-2-yl)pyridin-2-yl]-4-(2,6-dimethyl-3-propan-2-ylthieno[2,3-d]imidazol-5-yl)-5-fluoropyrimidin-2-amine]: the IC50 in experiment [1] was at most 0.02 µM. On the same count and under the same terms, next, `CCN1CCN(c2ccc(Nc3ncc(F)c(-c4sc5c(C(C)O)n(C)nc5c4C)n3)nc2)CC1` (stereo not shown) [Example 104, 1-(5-(2-((5-(4-Ethylpiperazin-1-yl)pyridin-2-yl)amino)-5-fluoropyrimidin-4-yl)-2,6-dimethyl-2H-thieno[3,2-c]pyrazol-3-yl)ethan-1-ol]: 0.02 to 0.2 µM. Same read-out and setting: next, `CCN1CCN(c2ccnc(Nc3ncc(F)c(-c4sc5c(nc(C)n5C(C)C)c4C)n3)c2)CC1` [Example 119, 4-(2,6-Dimethyl-3-propan-2-ylthieno[2,3-d]imidazol-5-yl)-N-[4-(4-ethylpiperazin-1-yl)pyridin-2-yl]-5-fluoropyrimidin-2-amine]: 0.2 to 2 µM.

As for `CCN1CC2(C1)CN(c1ccc(Nc3ncc(F)c(-c4sc5c(C6CC6)n(C)nc5c4C)n3)nc1)C2` [Example 101, 4-(3-Cyclopropyl-2,6-dimethyl-2H-thieno[3,2-c]pyrazol-5-yl)-N-(5-(6-ethyl-2,6-diazaspiro[3.3]heptan-2-yl)pyridin-2-yl)-5-fluoropyrimidin-2-amine], the IC50 in experiment [1] lay in the range of 0.02 to 0.2 µM. The same measure, in the same setting: then `CCN1CCN(C(C)c2ccc(Nc3ncc(F)c(-c4cc5nc(C)n(C(C)C)c5s4)n3)nc2)CC1` (stereo not shown) [Example 116, N-[5-[1-(4-Ethylpiperazin-1-yl)ethyl]pyridin-2-yl]-5-fluoro-4-(2-methyl-3-propan-2-ylthieno[2,3-d]imidazol-5-yl)pyrimidin-2-amine], with at most 0.02 µM; and `CCN1CCN(c2cccc(Nc3ncc(F)c(-c4sc5c(nc(C)n5C(C)C)c4C)n3)n2)CC1` [Example 113, 4-(2,6-Dimethyl-3-propan-2-ylthieno[2,3-d]imidazol-5-yl)-N-[6-(4-ethylpiperazin-1-yl)pyridin-2-yl]-5-fluoropyrimidin-2-amine], with 0.2 to 2 µM; and `Cc1nc2cc(-c3nc(Nc4ccc(C5C(=O)N(C)CCN5C)cn4)ncc3F)sc2n1C(C)C` (stereo not shown) [Example 117, 3-[6-[[5-Fluoro-4-(2-methyl-3-propan-2-ylthieno[2,3-d]imidazol-5-yl)pyrimidin-2-yl]amino]pyridin-3-yl]-1,4-dimethylpiperazin-2-one], with at most 0.02 µM. In the case of `Cc1nc2cc(-c3nc(Nc4ccc(CN5CCC(C(=O)N(C)C)C5)cn4)ncc3F)sc2n1C(C)C` (stereo not shown) [Example 65, 1-[[6-[[5-Fluoro-4-(2-methyl-3-propan-2-ylthieno[2,3-d]imidazol-5-yl)pyrimidin-2-yl]amino]pyridin-3-yl]methyl]-N,N-dimethylpyrrolidine-3-carboxamide], the IC50 in experiment [1] is 0.02 to 0.2 µM.

Consider `CCN1CCN(Cc2ccc(Nc3ncc(F)c(-c4sc5c(nc(C)n5C5CCCC5)c4C)n3)nc2)CC1` [Example 12, 4-(3-Cyclopentyl-2,6-dimethyl-3H-thieno[2,3-d]imidazol-5-yl)-N-(5-((4-ethylpiperazin-1-yl)methyl)pyridin-2-yl)-5-fluoropyrimidin-2-amine], for which the IC50 in experiment [1] was 0.2 to 2 µM. Still for that read-out and setting: then `CCN1CCN(c2ccc(Nc3ncc(F)c(-c4sc5c(C(C)C)ccnc5c4C#N)n3)nc2)CC1` [Example 122, 2-(2-((5-(4-Ethylpiperazin-1-yl)pyridin-2-yl)amino)-5-fluoropyrimidin-4-yl)-7-isopropylthieno[3,2-b]pyridine-3-carbonitrile], with 0.02 to 0.2 µM. On the same count and under the same terms, then `Cc1c(-c2nc(Nc3ccc(N4CCC5(CCN(C)C5)C4)cn3)ncc2F)sc2c(C(C)C)cn(C)c(=O)c12` (stereo not shown) [Example 76, 2-(5-Fluoro-2-((5-(7-methyl-2,7-diazaspiro[4.4]nonan-2-yl)pyridin-2-yl)amino)pyrimidin-4-yl)-7-isopropyl-3,5-dimethylthieno[3,2-c]pyridin-4(5H)-one], with at most 0.02 µM; and `CCN1CC2(C1)CN(c1ccc(Nc3ncc(F)c(-c4cc5nccc(C6CCCC6)c5s4)n3)nc1)C2` [Example 15, 4-(7-Cyclopentylthieno[3,2-b]pyridin-2-yl)-N-[5-(6-ethyl-2,6-diazaspiro[3.3]heptan-2-yl)pyridin-2-yl]-5-fluoropyrimidin-2-amine], with at most 0.02 µM. The same measure, in the same setting: next, `CCN1CCN(c2ccc(Nc3ncc(F)c(-c4sc5c(C(C)=O)n(C)nc5c4C)n3)nc2)CC1` [Example 103, 1-(5-(2-((5-(4-ethylpiperazin-1-yl)pyridin-2-yl)amino)-5-fluoropyrimidin-4-yl)-2,6-dimethyl-2H-thieno[3,2-c]pyrazol-3-yl)ethan-1-one]: 0.2 to 2 µM; `Cc1c(-c2nc(Nc3ccc(N4CCNCC4)cn3)ncc2F)sc2c(C3CCCC3)ccnc12` [Example 35, 4-(7-Cyclopentyl-3-methylthieno[3,2-b]pyridin-2-yl)-5-fluoro-N-(5-(piperazin-1-yl)pyridin-2-yl)pyrimidin-2-amine]: at most 0.02 µM; `CCN1CCN(c2ccc(Nc3ncc(F)c(-c4sc5c(C(C)C)nn(C)c5c4C)n3)nc2)CC1` [Example 106, 4-(1,6-Dimethyl-3-propan-2-ylthieno[3,2-c]pyrazol-5-yl)-N-[5-(4-ethylpiperazin-1-yl)pyridin-2-yl]-5-fluoropyrimidin-2-amine]: 0.2 to 2 µM. On to `CN1CCC(c2ccc(Nc3ncc(F)c(-c4cc5c(=O)n(C)nc(C67CC(F)(C6)C7)c5s4)n3)nc2)CC1` [Example 110, 2-(5-Fluoro-2-((5-(1-methylpiperidin-4-yl)pyridin-2-yl)amino)pyrimidin-4-yl)-7-(3-fluorobicyclo[1.1.1]pentan-1-yl)-5-methylthieno[2,3-d]pyridazin-4(5H)-one], for which, in experiment [1], the IC50 was 0.2 to 2 µM.
